In EP0180615B1, “NOVEL ATRIAL NATRIURETIC/VASODILATOR POLYPEPTIDES” (priority 1984, dated 1995):
Positions of bridges follow the written chain, without caps; N, C: chain ends. Residues, ends and D or L forms follow the SMILES beside them.

Legend:
[1] = tested on: cultured bovine aortic smooth muscle cells; assay: cyclic GMP accumulation in cultured aortic smooth muscle cells; type: cell-based; settings: dose-response, % of maximal cyclic GMP increase (Figure 11A)
Source text: (§1) Since the agonistic action of ANVP in vascular smooth muscle not only results from binding to specific receptors, but is also associated with increases in cyclic GMP, the effects of ANVPs and analogs on cyclic GMP accumulation were examined using the same cultured cells. […] In Figure 11A & B, the relative activities of ANVP and analogs on cyclic GMP accumulation in aortic smooth muscle and endothelial cells are shown. The data is plotted in a dose-response relationship (log dose vs % of maximal cyclic GMP increases).

[2] = tested on: cultured bovine aortic endothelial cells; assay: cyclic GMP accumulation in cultured aortic endothelial cells; type: cell-based; settings: dose-response, % of maximal cyclic GMP increase (Figure 11B)
Source text: as §1

[3] = tested on: binding sites on vascular smooth muscle cells; assay: 125I-ANVP binding and displacement on cultured vascular wall cells; parameters: species or system bovine; settings: unlabelled competitor; vascular smooth muscle cells (Table III)
Method: Therefore, cells of vascular wall origin, e.g. bovine aortic smooth muscle and endothelial cells, were used to determine binding of ANVP compounds to specific receptors and associated cyclic GMP increases were measured.
Binding assays were performed as follows: ANVPs were labelled with ^1251 according to the procedure of Schenk, et al., J. Biol. Chem., 259:14941-14951 (1984). This procedure utilizes glucose oxidase and lactoperoxidase mediated oxidations to transfer ^1251 to the tyrosine on the ANVP molecule. ^1251-ANVP was then added to 10 mm confluent cultures of vascular wall cells and incubated at 37 °C.
Thus, the displacement of ^1251-ANVP binding by ANVPs and analogs as a function of concentration is a reflection of their potency to bind to the vascular wall and alter the contractile state of the vessel.

isolated rat kidney = assay: isolated perfused rat kidney
Method: The activity of rANVP(126-149) was measured in the isolated rat kidney. Functioning isolated rat kidneys were perfused in a closed-circuit system, as described in Camargo, M.J.F. et al. Am.J.Physiol., 246:F447-F456 (1984). After control clearance periods, 0.1 to 1.0 µg of the compound was added to the perfusate. The effects on multiple parameters were noted. These peak values are expressed in Table I as the experimental data. It is clear that rANVP(126-149) caused urine flow rate, urinary sodium excretion, filtration fraction and glomerular filtration rate to increase.
Isolated rat kidneys were treated as described in Table I. Control periods for each compound are denoted by C and experimental periods following the addition of compounds are denoted by E. V-urine flow rate UNaV-urinary sodium excretion rate, GFR-glomerular filtration rate. Data represent the mean of 3-8 experiments.
Samples of the above expressed material were also tested for natriuretic and diuretic activity using the isolated perfused rat kidney model as described by Camargo, M. et al., Am. J. Physiol. 246:F447-F456-(1984). As shown in Table VIII material synthesized and secreted by yeast cultures containing YEp-a-NF-5 and purified as described above through the SP-Sephadex step increased urinary Na^+ excretion approximately 3-fold and urinary volume 2-fold as examined during repeated test periods of 10 minutes each. […] No significant increase occurred in urinary Na^+ excretion, urinary volume, glomerular filtration or renal resistance when the same experiment was performed on material synthesized and secreted by yeast cultures containing the reverse orientation control plasmid YEp-a-NF-7 and purified through SP-Sephadex@.

intact rat = assay: natriuresis after bolus injection in the intact anesthetized rat; type: in vivo; settings: Inactin anesthetized rats on constant saline infusion
Method: Synthetic ANVP compounds rANVP(126-149), rANVP(126-150) and hANVP(127-151) were also found to be natriuretic in the intact rat. These compounds were administered as a bolus injection to Inactin anesthetized rats (100 mg/kg, average weight 399 g) which were maintained on a constant infusion of normal saline at 2.2 ml/hr. […] Data are expressed as mean ± SE.

anesthetized dogs = assay: renal and hemodynamic effects of constant infusion in anesthetized dogs; type: in vivo; settings: 1 µg/kg bolus, followed by 0.1 µg/kg/min for 1 hour
Method: Renal and hemodynamic effects have also been measured in anesthetized dogs receiving a constant infusion of the compound rANVP(126-149) (1 µg/kg bolus, followed by 0.1 µg/kg/min for 1 hour). Immediate effects were noted on blood pressure, GFR and urine flow rate and electrolyte excretion which were sustained throughout the infusion. The "experimental" data presented for these parameters in Table IV are the average values obtained during the infusion. […] All these parameters returned to control (i.e. pre-infusion) levels during the recovery period (i.e. following termination of the infusion).
(§2) Thus, ANVPs are able to block the effects of the renin-angiotensin system at several levels: (1) they antagonize the direct actions of angiotensin on its target organs (blood vessels and the adrenal); and (2) inhibit renin secretion, which leads to a reduced rate of angiotensin formation in the blood.

isolated adrenal cells = assay: angiotensin-stimulated aldosterone production by isolated adrenal cells; type: cell-based
Source text: as §2

[4] = 0.1 to 1.0 µg added to the perfusate after control clearance periods, peak values
[5] = 0.1 to 1.0 µg added to the perfusate, perfused in the absence of vasoconstrictors

CC[C@H](C)[C@@H]1NC(=O)[C@H](CCCNC(=N)N)NC(=O)[C@H](CC(=O)O)NC(=O)[C@H]([C@@H](C)CC)NC(=O)[C@H](CCCNC(=N)N)NC(=O)CNC(=O)[C@@H](C)NC(=O)[C@H](Cc2ccccc2)NC(=O)[C@@H](NC(=O)[C@H](CO)NC(=O)[C@H](CO)NC(=O)[C@@H](N)CCCNC(=N)N)CSSC[C@@H](C(=O)N[C@@H](CC(N)=O)C(=O)N[C@@H](CO)C(=O)N[C@@H](Cc2ccccc2)C(=O)N[C@@H](CCCNC(=N)N)C(=O)N[C@@H](Cc2ccc(O)cc2)C(=O)O)NC(=O)CNC(=O)[C@H](CC(C)C)NC(=O)CNC(=O)[C@H](CO)NC(=O)[C@H](CCC(N)=O)NC(=O)[C@H](C)NC(=O)CNC1=O [[D-Ala^131]rANVP(126-150)]
rank order of potency, cyclic GMP accumulation [1]: > rANVP(127-150) = other D amino acid substitutions
rank order of potency, cyclic GMP accumulation [2]: > rANVP(127-150) = other D amino acid substitutions

CC[C@H](C)[C@@H]1NC(=O)[C@H](CCCNC(=N)N)NC(=O)[C@H](CC(=O)O)NC(=O)[C@H]([C@@H](C)CC)NC(=O)[C@H](CCCNC(=N)N)NC(=O)CNC(=O)CNC(=O)[C@H](Cc2ccccc2)NC(=O)[C@@H](NC(=O)[C@H](CO)NC(=O)[C@H](CO)NC(=O)[C@@H](N)CCCNC(=N)N)CSSC[C@@H](C(=O)N[C@@H](CC(N)=O)C(=O)N[C@@H](CO)C(=O)N[C@@H](Cc2ccccc2)C(=O)N[C@@H](CCCNC(=N)N)C(=O)N[C@@H](Cc2ccc(O)cc2)C(=O)O)NC(=O)CNC(=O)[C@H](CC(C)C)NC(=O)[C@@H](C)NC(=O)[C@H](CO)NC(=O)[C@H](CCC(N)=O)NC(=O)[C@H](C)NC(=O)CNC1=O [[D-Ala^142]rANVP(126-150), [D-Ala'^42]rANVP(126-150)]
displacement of 125I-ANVP binding [3]: most reactive
rank order of potency, cyclic GMP accumulation [1]: > rANVP(127-150) = other D amino acid substitutions
rank order of potency, cyclic GMP accumulation [2]: > rANVP(127-150) = other D amino acid substitutions

CC[C@H](C)[C@@H]1NC(=O)[C@H](CCCNC(=N)N)NC(=O)[C@H](CC(=O)O)NC(=O)[C@H]([C@@H](C)CC)NC(=O)[C@H](CCCNC(=N)N)NC(=O)CNC(=O)CNC(=O)[C@H](Cc2ccccc2)NC(=O)[C@@H](NC(=O)[C@H](CO)NC(=O)[C@H](CO)NC(=O)[C@@H](N)CCCNC(=N)N)CSSC[C@@H](C(=O)N[C@@H](CC(N)=O)C(=O)N[C@@H](CO)C(=O)N[C@@H](Cc2ccccc2)C(=O)N[C@@H](CCCNC(=N)N)C(=O)O)NC(=O)CNC(=O)[C@H](CC(C)C)NC(=O)CNC(=O)[C@H](CO)NC(=O)[C@H](CCC(N)=O)NC(=O)[C@H](C)NC(=O)CNC1=O [rANVP(126-149), rANVP (126-149)] (H-RSSCFGGRIDRIGAQSGLGCNSFR-OH; disulfide 4-20)
urinary sodium excretion (isolated rat kidney; [4]): increase
urine flow rate (isolated rat kidney; [4]): increase
filtration fraction (isolated rat kidney; [5]): increase
glomerular filtration rate (isolated rat kidney; [5]): increase
rank order of potency, cyclic GMP accumulation [1]: > rANVP(127-150) = other D amino acid substitutions
rank order of potency, cyclic GMP accumulation [2]: > rANVP(127-150) = other D amino acid substitutions
natriuretic in the intact rat (intact rat): natriuretic
GFR rose (anesthetized dogs): 25-35%
Mean arterial pressure (MAP) fell (anesthetized dogs): 10-15%
diuresis and natriuresis (anesthetized dogs): sustained diuresis and natriuresis
plasma aldosterone (PA) (anesthetized dogs): significant decreases
plasma renin activity (PRA) (anesthetized dogs): significant decreases
ability of angiotensin to stimulate aldosterone production (isolated adrenal cells): inhibits

angiotensin
displacement of 125I-ANVP binding [3]: not by a variety of hormones

glucagon
displacement of 125I-ANVP binding [3]: not by a variety of hormones

vasopressin
displacement of 125I-ANVP binding [3]: not by a variety of hormones
